Assay results from patent US8372971B2, “Heterocyclic compounds and methods of use” (TargeGen, Inc., priority 2004, dated 2013).
Counter-ions that a name gives are not always drawn.

Key:
[1] = test system: p-MEK and p-ERK levels in HUVECs; assay: Western Blot, inhibition of MAPK pathway in cellular assay (Example 27); assay type: cell-based, human; settings: at 5 uM, 50 ng/ml VEGF or FGF
Method: Western Blot: Early passage primary human umbilical vein endothelial cells (HUVECs) were maintained in EGM-2 containing SingleQuots (Cambrex, East Rutherford, N.J.), 10% FBS, 10 mM HEPES, and 50 μg/ml gentamicin. Prior to treatment of the cells with inhibitor, the HUVECs were starved for 18 h by replacing serum-containing complete media with scrum-free and SingleQuot-free media. The starved cells were pre-treated with inhibitors for 60 min at various concentrations (0-20 μM). Next the HUVECs were treated with 50 ng/ml VEGF or FGF (Peprotech, Rocky Hill, N.J.) for 6 min and the cells were immediately washed with ice-cold PBS. Cells were lysed with ice-cold RIPA buffer containing 100 mM Tris pH 7.5, 150 mM NaCl, 1 mM EDTA, 1% deoxycholate, 1% Triton X-100, 0.1% SDS, 2 mM PMSF, one Complete-Mini protease inhibitor tablet (Roche, Indianapolis, Ind.; 1 tablet/7 ml of lysis buffer) and the phophatase inhibitors NaF (500 mM) and orthovanadate (1 mM). The cells were scraped and lysates transferred and centrifuged at 15,000 g for 10 min. Supernatants were transferred to new tubes and protein concentration was quantitated using the BCA protein reagent (Pierce, Rockford, Ill.). Cell lysates containing 20 μg of total protein were separated by 10% SDS-PAGE, transferred to nitrocellulose, and blocked in 5% milk in TBST. Anti phospho-ERK Thr 202/Tyr 204 (Cell Signaling, Beverly, Mass.), anti-phospho-MEK Ser217/221 (Cell Signaling), and c-Raf (BD Biosciences Pharmingen, San Diego, Calif.) used as primary antibodies were detected with horseradish peroxidase-conjugated goat anti-mouse or rabbit secondary antibodies and bands were visualized using the SuperSignal West Pico chemiluminescence reagent system (Pierce) and Kodak X-ray film (Rochester, N.Y.).

[2] = test system: HUVECs; assay: XTT cell viability assay (Example 28); assay type: cell-based; settings: Homo sapiens, HUVEC, 24-48 hours, read-out: Inhibition of HUVEC cell prolifiration (IC50)
Method: XTT assay: HUVECs were seeded at 10,000 cells/well of a tissue culture treated 96-well plate treated with collagen type I and grown overnight in the complete EGM-2 media as described above. The following morning, the inhibitors were serial diluted with DMSO and added to the cells with a final DMSO concentration of 1%. After 24-48 hours cell viability was measured with an XTT assay (Sigma, St. Louis, Mo.). The cells were also photographed to compare morphological differences to the XTT trends observed. Determination of the IC50 values was performed with quantitative software (Prism software package, GraphPad Software, San Diego Calif.).

[3] = target: T1, raf1 with inactive MEK1 (Raf1-MEK1) (Homo sapiens, UniProt P04049); assay: Raf1-MEK1 assay (KinaseGlo); assay type: biochemical; settings: for IC50: Raf-Mek, 3 uM ATP, read-out: RAF-MEK assay (biochemical assay)
T1 construct: purchased Upstate, Lake Placid, N.Y
T1 sequence (P04049 306-648 limits assumed): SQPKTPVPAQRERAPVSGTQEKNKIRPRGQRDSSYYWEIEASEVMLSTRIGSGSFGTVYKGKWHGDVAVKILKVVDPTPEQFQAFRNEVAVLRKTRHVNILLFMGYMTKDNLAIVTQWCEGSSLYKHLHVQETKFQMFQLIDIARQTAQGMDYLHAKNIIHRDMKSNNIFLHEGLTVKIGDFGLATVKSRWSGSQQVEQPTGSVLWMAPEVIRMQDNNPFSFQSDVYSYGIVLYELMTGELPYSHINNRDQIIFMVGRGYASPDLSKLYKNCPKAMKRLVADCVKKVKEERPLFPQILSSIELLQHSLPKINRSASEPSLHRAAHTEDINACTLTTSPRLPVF

[4] = target: T2, recombinant human raf1 (Homo sapiens, UniProt P04049); assay: Raf1 direct kinase assay (KinaseGlo); assay type: biochemical; settings: printed in the RAF-MEK column
T2 construct: purchased Upstate, Lake Placid, N.Y
T2 sequence (P04049 whole entry): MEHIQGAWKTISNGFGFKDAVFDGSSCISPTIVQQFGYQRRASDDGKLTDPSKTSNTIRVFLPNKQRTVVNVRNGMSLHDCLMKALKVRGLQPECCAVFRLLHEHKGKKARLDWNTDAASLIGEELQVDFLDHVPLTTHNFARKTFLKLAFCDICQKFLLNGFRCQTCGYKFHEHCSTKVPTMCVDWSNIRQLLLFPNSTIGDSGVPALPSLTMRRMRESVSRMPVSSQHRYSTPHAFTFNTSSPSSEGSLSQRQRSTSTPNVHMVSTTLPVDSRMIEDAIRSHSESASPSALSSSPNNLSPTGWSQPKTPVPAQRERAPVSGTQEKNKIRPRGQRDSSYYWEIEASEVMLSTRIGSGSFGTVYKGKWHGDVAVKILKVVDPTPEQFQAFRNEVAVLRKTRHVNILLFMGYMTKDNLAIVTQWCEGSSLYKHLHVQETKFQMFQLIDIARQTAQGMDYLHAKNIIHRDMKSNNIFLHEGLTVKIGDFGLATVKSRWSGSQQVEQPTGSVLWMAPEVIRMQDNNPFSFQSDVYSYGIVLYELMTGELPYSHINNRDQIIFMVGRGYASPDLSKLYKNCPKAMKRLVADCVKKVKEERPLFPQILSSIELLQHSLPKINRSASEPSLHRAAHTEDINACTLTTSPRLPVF
Method: The ability of compounds of general structure (A) of the present invention to inhibit the kinase activity of Raf1 was evaluated using two methods: a direct and a Raf1-MEK1 assay. In the direct assay, kinase reactions were conducted in 96-well plates by combining recombinant human raf1 (29.4 U/well, Upstate, Lake Placid, N.Y.), ATP (3 μM), myelin basic protein substrate (MBP, 1 mg/ml, Upstate, Lake Placid, N.Y.), and test agents (at concentrations ranging from about 1 nM/l to about 10 μM), in the presence of kinase reaction buffer. […] After reacting for 60 minutes at 30° C., residual ATP was measured using a luciferase-based assay (KinaseGlo, Promega Corp.) as a measure of kinase activity. Data from four wells were then averaged and used to determine IC50 values for the test compounds (Prism software package, GraphPad Software, San Diego Calif.).

SMILES | Western Blot [1] | IC50 [2] | IC50 [3] | window [3] | RAF-MEK assay (biochemical assay), result in words [3] | IC50 [4]
O=C(Nc1nnc2cc(Oc3ccncc3)ccc2n1)c1ccc(OC(F)(F)F)cc1 [N-[7-(Pyridin-4-yloxy)-benzo[1,2,4]triazin-3-yl]-4-trifluoromethoxy-benzamide] | not active at 5 uM | 7380 nM |  |  |  | 
CNC(=O)c1cc(Oc2ccc3nc(NC(=O)c4cccc(C(F)(F)F)c4)nnc3c2)ccn1 [4-[3-(3-trifluoromethyl-benzoylamino)-benzo[1,2,4]triazin-7-yloxy]-pyridine-2-carboxylic acid methyl amide trifluoroacetate salt] | not active at 5 uM |  | 655 nM | ~70% |  | 
CNC(=O)c1cc(Oc2ccc3nc(NC(=O)c4cccc(Cl)c4)nnc3c2)ccn1 [trifluoroacetate salt] | not active at 5 uM |  |  |  | flat | 
CNC(=O)c1cc(Oc2ccc3nc(NS(=O)(=O)c4cc(Cl)ccc4OC)nnc3c2)ccn1 [4-[3-chloro-6-methoxy-benzenesulfonylamino)-benzo[1,2,4]triazin-7-yloxy]-pyridine-2-carboxylic acid methyl amide trifluoroacetate salt] | not active at 5 uM |  | > 50000 nM |  |  | 
CNC(=O)c1cc(Oc2ccc3nc(Nc4ccc(Cl)cc4)nnc3c2)ccn1 [4-[3-(4-chloro-phenylamino)-benzo[1,2,4]triazin-7-yloxy]-pyridine-2-carboxylic acid methylamide trifluoroacetate salt] | not active at 5 uM |  | 10000 to 50000 nM | 100% |  | 77 nM
O=C(Nc1nnc2cc(Oc3ccnc(C(=O)NCCN4CCOCC4)c3)ccc2n1)c1ccc(OC(F)(F)F)cc1 [4-[3-(4-Trifluoromethoxy-benzoylamino)-benzo[1,2,4]triazin-7-yloxy]-pyridine-2-carboxylic acid (2-morpholin-4-yl-ethyl)-amide] | active at 5 uM | 1480 nM |  |  |  | 
CNC(=O)c1cc(Oc2ccc3nc(NC(=O)c4cccc(C(F)(F)F)c4Cl)nnc3c2)ccn1 [4-[3-(2-chloro-3-trifluoromethyl-benzoylamino)-benzo[1,2,4]triazin-7-yloxy]-pyridine-2-carboxylic acid methyl amide trifluoroacetate salt] | not active at 5 uM |  |  |  | flat | 
CNC(=O)c1cc(Oc2ccc3nc(Nc4ccc(Cl)c(C(F)(F)F)c4)nnc3c2)ccn1 [4-[3-(4-chloro-3-trifluoromethyl-phenylamino)-benzo[1,2,4]triazin-7-yloxy]-pyridine-2-carboxylic acid methylamide trifluoroacetate salt] | not active at 5 uM |  | 11.6 nM | ~20% |  | 
CNC(=O)c1cc(Oc2ccc3nc(NS(=O)(=O)c4cccc(C(F)(F)F)c4)nnc3c2)ccn1 [4-[3-(3-trifluoromethyl-benzenesulfonylamino)-benzo[1,2,4]triazin-7-yloxy]-pyridine-2-carboxylic acid methyl amide trifluoroacetate salt] | not active at 5 uM |  |  |  | flat | 
